The target of assay [1] is GluA2flip(R)-stargazin (A2R-stg TetON HEK293 cells) (Homo sapiens, UniProt P42262, Q607R). The assay can be described thus: Voltage-sensitive dye (VSD) assay (primary screen, counter-screen, CRC) on A2R-stg cells. Particulars: for concentration at which PAM/NAM activity is evident in raw VSD traces, A2R-stg: raw VSD data. (In general: The purpose of a counterscreen is to sort out artefacts and off-target activity.)
Description: Cell lines used in the VSD assays were TetON HEK293 cells. […] We used GluA2flip(R) TetON HEK cell clone #4 that doxycycline (DOX) dependently expresses GluA2flip(R) (A2R). The A2R cells were used as the base cell line to derive cell lines that co-express auxiliary subunits.
(§3) Greiner 384-pp round-bottom plates containing glutamate for the second add were dispensed by hand using a multi-channel pipet at 5X final concentration. A2R-stg cells were plated in 384-well BD PureCoat amine-coated plates (Corning Life Sciences) at 16k cells/well in DMEM medium supplemented with 10% heat-inactivated FBS and 100U/mL PenStrep antibiotic. […] Cells were incubated overnight (O/N) and washed 4 times in HBSS containing 20 mM HEPES, pH 7.4, on an ELX405CW liquid aspirator and dispenser (BioTek). Buffer was left in the wells and an equal amount of 2X FLIPR dye solution was added and incubated on the cells at room temperature for 45 min. Fluorescence signal was collected at 1 Hz using Ex. 480±20 nm/Em. 540±40 nm on a Hamamatsu Functional Drug Screening System 6000 (FDSS). Baseline signal was collected for 10 seconds followed by addition of 10 μl of 5X compound for a final concentration of 10 μM.
Hits were selected from this initial screen using 4 different criteria, which we termed CMPDslope, CMPDmaxmin, GLUslope, and GLUmaxmin. […] GLUslope is the fitted slope of the increase in fluorescence within 10 sec after adding glutamate. GLUmaxmin is the difference in the minimum and maximum value in fluorescence signal reached in the 100 sec window after adding glutamate. Compounds were classified as hits if they differed by 3 standard deviations of the mean for each criterion. Tier 1 hits were classified as those that hit in the GLUslope, GLUmaxmin, and CMPDmaxmin windows. Tier 2 hits were classified as compounds that hit in the GLUslope window and either the GLUmaxmin or CMPDmaxmin window. Tier 3 hits were classified as those that hit in only the GLUslope or the GLUmaxmin window. Tier 4 hits were classified as compounds that hit only in the CMPD window, CMPDslope or CMPDmaxmin. Hit selection was further narrowed using the criterion that their signal must return to near baseline values before entering the glutamate add window.
VSD concentration response curves (CRCs): After the above counter-screens, compounds that remained positive were moved forward to collect complete CRCs for A2R-stg and A2R-C3 cell lines. This assay was carried out in the same way as the VSD screening assay except a 10-point concentration curve, from 40 μM to 10 nM, was plated in triplicate for each compound on a single 384-well plate. Data were summarized by plotting them as %max GLUslope against log [compound] that was fit to a four-parameter logistical model. %max GLUslope is defined as a normalized GLUslope expressed as a percentage of the mean maximum GLUslope, defined as 100, where background mean vehicle control (VHLslope) were subtracted from both values on a per plate basis. Thus, %max GLU slope = (GLUslope-mean VHLslope/mean maxGLUslope-mean VHLslope).

For assay [2], the target named is GluA2flip(R)-CNIH3 (A2R-C3 TetON HEK293 cells) (Homo sapiens, UniProt P42262, Q607R). The assay can be described thus: VSD assay (counter-screen, CRC) on A2R-C3 cells. Particulars: for concentration at which PAM/NAM activity is evident in raw VSD traces, A2R-C3: raw VSD data.
Sequence of GluA2flip(R)-CNIH3 (A2R-C3 TetON HEK293 cells) (P42262 25-883 isoform P42262-2 Q607R limits assumed): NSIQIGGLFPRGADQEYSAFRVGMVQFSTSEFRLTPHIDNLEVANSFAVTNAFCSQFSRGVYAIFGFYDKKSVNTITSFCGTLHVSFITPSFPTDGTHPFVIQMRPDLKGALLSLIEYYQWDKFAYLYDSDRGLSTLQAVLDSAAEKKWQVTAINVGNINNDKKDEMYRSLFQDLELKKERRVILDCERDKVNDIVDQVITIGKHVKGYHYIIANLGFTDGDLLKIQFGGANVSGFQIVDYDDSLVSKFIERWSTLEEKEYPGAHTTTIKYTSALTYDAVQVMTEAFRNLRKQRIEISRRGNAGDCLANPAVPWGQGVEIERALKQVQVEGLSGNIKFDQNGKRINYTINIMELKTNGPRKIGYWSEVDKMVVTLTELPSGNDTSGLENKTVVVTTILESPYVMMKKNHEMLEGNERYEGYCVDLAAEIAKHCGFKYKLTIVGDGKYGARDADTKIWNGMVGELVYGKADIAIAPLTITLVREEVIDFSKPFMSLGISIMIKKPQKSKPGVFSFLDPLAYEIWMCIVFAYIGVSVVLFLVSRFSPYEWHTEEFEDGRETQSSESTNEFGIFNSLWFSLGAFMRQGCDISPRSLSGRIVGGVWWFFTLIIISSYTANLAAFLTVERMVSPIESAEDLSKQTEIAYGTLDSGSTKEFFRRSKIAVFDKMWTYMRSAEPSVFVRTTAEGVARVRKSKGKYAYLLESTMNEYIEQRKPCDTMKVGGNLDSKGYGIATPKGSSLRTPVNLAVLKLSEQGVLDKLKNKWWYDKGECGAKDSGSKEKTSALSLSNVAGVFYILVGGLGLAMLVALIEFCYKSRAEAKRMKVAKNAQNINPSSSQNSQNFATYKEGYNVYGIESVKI
Sequence of GluA2flip(R)-CNIH3 (A2R-C3 TetON HEK293 cells) (Q8TBE1 whole entry partner): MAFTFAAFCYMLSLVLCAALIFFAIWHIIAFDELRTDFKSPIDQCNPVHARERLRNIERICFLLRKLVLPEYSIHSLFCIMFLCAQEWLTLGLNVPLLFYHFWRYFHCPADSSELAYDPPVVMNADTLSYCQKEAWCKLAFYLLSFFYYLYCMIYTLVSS
Excerpt: Cell lines used in the VSD assays were TetON HEK293 cells. This was the parental cell line for all stable cell lines created. We used GluA2flip(R) TetON HEK cell clone #4 that doxycycline (DOX) dependently expresses GluA2flip(R) (A2R). The A2R cells were used as the base cell line to derive cell lines that co-express auxiliary subunits.
as §3
This assay was carried out in the same way as the VSD screening assay except a 10-point concentration curve, from 40 μM to 10 nM, was plated in triplicate for each compound on a single 384-well plate. Data were summarized by plotting them as %max GLUslope against log [compound] that was fit to a four-parameter logistical model. %max GLUslope is defined as a normalized GLUslope expressed as a percentage of the mean maximum GLUslope, defined as 100, where background mean vehicle control (VHLslope) were subtracted from both values on a per plate basis. Thus, %max GLU slope = (GLUslope-mean VHLslope/mean maxGLUslope-mean VHLslope).
Assay [3] addresses T1, tethered GluA2flip(Q)-stargazin (A2Q-stg cells) (Rattus norvegicus, UniProt P19491). The assay can be described thus: Calcium flux (Fluo-8) compound CRC assay on A2Q-stg cells. (A change in cytosolic calcium serves as a functional read-out for many receptors and channels.)
Excerpt: (§4) Cell lines used in the calcium flux assay were GluA2flip(Q)-FLAG + GSG1L-1D4 pTREt-Va dual expression in TetON HEK cell clone #20 (A2Q-GSG), GluA2flip(Q)-FLAG + CNIH3-1D4 pTREt-Va dual expression in TetON HEK cell clone #8 (A2Q-C3), GluA2flip(Q)-FLAG pTREt-Va in TetON HEK cell clone #5 (A2Q), and tethered GluA2flip(Q)-FLAG-stargazin [28] in pTREt-Va dual expression in TetON HEK cell clone #13 (A2Q-stg) (Summarized in Table 1).
(§5) Compounds that were selected as hits using the VSD assay were subsequently screened against the calcium permeable A2Q-stg and A2Q-C3 cell lines in a glutamate potency fold-shift assay using the calcium sensing dye Fluo-8 (AAT Bioquest cat #21080). This assay is used to measure how pretreatment with compounds shifts the EC50 of glutamate on A2Q-stg and A2Q-C3 cells. 30 μM of each compound was pre-incubated with the cells for 120 secs and then an 11-point glutamate CRC from 4 mM to 10 pM was applied to the cells for 180 sec. […] Greiner 384-pp round-bottom plates containing glutamate solutions were dispensed by hand using a multi-channel pipet at 5X final concentration. […] Sodium butyrate and DOX were added to the cells at 1 mM and 5 μg/mL, respectively, 24 hours before screening. A2Q-stg cells were induced with 10 μg/mL DOX. Cells were incubated O/N and washed 4 times in low calcium buffer on an ELX405CW liquid aspirator and dispenser (BioTek). Buffer was left in the wells and an equal amount of 4.6 μM (2X) Fluo-8 (AAT Bioquest cat #21080) solution with 2.5 mM probenecid was added and incubated on the cells at room temperature for 40 minutes. Probenecid was added to block dye efflux from the cells [29]. Dye was washed off with low calcium buffer using the ELX405CW (BioTek) and plates were immediately inserted into the FDSS (Hamamatsu). Fluorescence signal was collected at 1 Hz using Ex. 480±20 nm/Em. 540±40 nm. Baseline signal was collected for 10 seconds followed by addition of 20 μl of 2X compound for a final concentration of 30 μM. After 290 seconds, 10 μl of a 5X glutamate solution in high calcium buffer (10 mM HEPES, pH 7.4, 140 mM NaCl, 5 mM KCl, 1 mM MgCl2, 9 mM CaCl2, and 10 mM glucose) was added for 180 seconds.
These compound CRCs were applied to the cells 2 minutes before a 1mM glutamate stimulation. […] Normalized FDSS traces were curve fit to CRCs using the initial GLUslope (GLUslope1) in a 3–6 sec window after glutamate application. […]
Cells were loaded with Fluo-8 and excess dye was washed out. […] We measured GLUslope in three consecutive time windows, referred to as GLUslope1-3, because three phases were clearly detectable (Fig 4C). The final CRC curves were calculated from GLUslope1, obtained from the first 3–6 sec window.
The final compound CRC curves were calculated from GLUslope1. […]
Assay [4] concerns the target T1, tethered GluA2flip(Q)-stargazin (A2Q-stg cells). The assay can be described thus: Calcium flux (Fluo-8) glutamate potency fold-shift assay on A2Q-stg cells. Particulars: 30 μM compound. It is filed as cell-based. How it is done:
(§1) In this assay, a maximal dose (30 μM) of each compound (Fig 4Di) was incubated on cells for 120 secs and then a CRC for glutamate ranging from 4 mM to 10 pM was collected (Fig 4Dii). A rightward shift of the CRC for glutamate to a higher EC50 indicates NAM activity and a leftward shift to a lower EC50 indicates PAM activity (Fig 4E). […] These compounds, considered active, were then evaluated as a CRC of the compounds in the calcium flux assay.

For assay [5], the target named is T2, GluA2flip(Q)-CNIH3 (A2Q-C3 cells) (Homo sapiens, UniProt P42262). As to the kind of experiment: Calcium flux (Fluo-8) glutamate potency fold-shift assay on A2Q-C3 cells. Particulars: 30 μM compound. The arrangement: FLAG (C); expressed in transfected cells. Format: cell-based. Here is the method:
as §1

In assay [6] the target is T2, GluA2flip(Q)-CNIH3 (A2Q-C3 cells). As to the kind of experiment: Calcium flux (Fluo-8) compound CRC assay on A2Q-C3 cells.
Excerpt: as §4, §5
(§6) These compound CRCs were applied to the cells 2 minutes before a 1mM glutamate stimulation. […] Normalized FDSS traces were curve fit to CRCs using the initial GLUslope (GLUslope1) in a 3–6 sec window after glutamate application. CRCs were also plotted for the traces’ area under the curve (AUC) in the GLUmaxmin window. […] Compounds were plotted as %max GLUslope against log [compound] and fit to a four-parameter logistical model as in the VSD.
(§7) Cells were loaded with Fluo-8 and excess dye was washed out. After 120 secs of pre-incubation with compound at concentrations ranging from 30 μM to 30 nM (Fig 4Bi), 1 mM glutamate was added (Fig 4Bii). In the calcium assay, 250 μM was used as the maxGLU dose because the GLUslope1 values decreased at higher concentrations of glutamate, making it the dose with the maximal GLUslope1 response. […] We measured GLUslope in three consecutive time windows, referred to as GLUslope1-3, because three phases were clearly detectable (Fig 4C). The final CRC curves were calculated from GLUslope1, obtained from the first 3–6 sec window.
(§8) The final compound CRC curves were calculated from GLUslope1. […] The AUC measures the accumulation of calcium instead of gating and sometimes produced a CRC fit when GLUslope1 could not derive an EC50 value.
Assay [7] addresses T3, GluA2flip(Q) (A2Q cells) (Homo sapiens, UniProt P42262).
T3 construct: FLAG (C); expressed in transfected cells
The assay can be described thus: Calcium flux (Fluo-8) compound CRC assay on A2Q cells. Format: cell-based.

In assay [8] the target is GluA2flip(Q)-GSG1L (A2Q-GSG cells) (Homo sapiens, UniProt P42262). As to the kind of experiment: Calcium flux (Fluo-8) compound CRC assay on A2Q-GSG cells.
Sequence of GluA2flip(Q)-GSG1L (A2Q-GSG cells) (P42262 25-883 isoform P42262-2 limits assumed): as the sequence (P42262 25-883 isoform P42262-2 Q607R limits assumed) above, with R583Q counted along it
Sequence of GluA2flip(Q)-GSG1L (A2Q-GSG cells) (Q6UXU4 whole entry partner): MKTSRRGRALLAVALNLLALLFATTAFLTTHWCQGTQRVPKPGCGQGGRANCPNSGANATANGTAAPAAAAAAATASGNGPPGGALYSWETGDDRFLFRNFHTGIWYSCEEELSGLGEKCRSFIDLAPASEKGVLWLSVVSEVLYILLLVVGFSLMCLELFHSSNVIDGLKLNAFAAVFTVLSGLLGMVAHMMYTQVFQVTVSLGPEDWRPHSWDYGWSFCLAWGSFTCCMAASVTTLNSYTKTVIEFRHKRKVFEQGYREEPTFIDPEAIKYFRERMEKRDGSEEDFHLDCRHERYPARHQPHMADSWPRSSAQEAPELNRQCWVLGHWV
Excerpt: as §4, §5, §6, §7, §8
In assay [9] the target is T4, GluA2flip(R) (A2R cells) (Homo sapiens, UniProt P42262, Q607R).
T4 construct: expressed in transfected cells
T4 sequence (P42262 25-883 isoform P42262-2 Q607R limits assumed): as the sequence (P42262 25-883 isoform P42262-2 Q607R limits assumed) above
The assay can be described thus: Whole-cell electrophysiology with fast ligand application, A2R cells. It is filed as cell-based. Particulars: 40 μM compound. How it is done:
(§2) A2R-stg cells were plated on HNO3 washed coverslips coated with 1:20000 poly-d-lysine (incubated for 20 min, washed with PBS 2x and media 1x) for 2 hours. They were induced with 5 μg/mL DOX for 24 hours before recording. A2R cells were plated on 1:60000 poly-d-lysine for 2 hours and induced with 7.5 μg/mL DOX for 30 hours before recording. The cells were lifted from the coverslip after whole cell configuration was achieved and brought in front of the theta tubing. […] Recording was done using a single channel of a Multiclamp700B Amplifier (Axon Instruments) operated by pClamp10 software. Signals were digitized using Digidata1440A (Axon Instruments) at a sampling rate of 50 kHz and low pass filtered at 2kHz. Borosilicate glass capillaries (O.D. 1.5 mm, I.D. 0.86 mm, Sutter) were pulled to manufacture electrodes with pipette resistances of 3.5–5 MΩ.
Standard solution without ligand was the external solution. The ligand solution contained 1mM glutamate in external solution, supplemented with 2mM glucose and 3mM NaCl to facilitate visualizing the interface of the two solutions and recording liquid junction potential after breaking the patch. The 10–90% rise time of liquid junction potential was around 300μsec. VU0627849 was dissolved in external solution containing 1 mM glutamate to a final concentration of 40 μM. […]

Assay [10] deals with T5, GluA2flip(R) (A2R TetON HEK293 cells) (Homo sapiens, UniProt P42262, Q607R).
T5 construct: expressed in transfected cells
T5 sequence (P42262 25-883 isoform P42262-2 Q607R limits assumed): as above
The assay can be described thus: VSD counter-screen on A2R cells. Format: cell-based. Particulars: 10 μM compound.

Assay [11] has as its target T6, GluA2flip(R)-stargazin (A2R-stg cells) (Homo sapiens, UniProt P42262, Q607R).
T6 construct: expressed in transfected cells
As to the kind of experiment: Whole-cell electrophysiology with fast ligand application, A2R-stg cells. Format: cell-based. Particulars: 40 μM compound. Here is the method: as §2
Standard solution without ligand was the external solution. The ligand solution contained 1mM glutamate in external solution, supplemented with 2mM glucose and 3mM NaCl to facilitate visualizing the interface of the two solutions and recording liquid junction potential after breaking the patch. The 10–90% rise time of liquid junction potential was around 300μsec. VU0627849 was dissolved in external solution containing 1 mM glutamate to a final concentration of 40 μM. Tips of the tubing for each solution were positioned immediately before the opening of one compartment of the theta tubing. Drug-containing and drug-free glutamate solutions were switched using a manual valve located between the solution reservoir and theta glass tube. Solution speed was adjusted by the height of the reservoir using gravity.
We have conducted a preliminary electrophysiological investigation of the compound VU0627849. Using a fast ligand application system, A2R and A2R-stg cells were stimulated with 1mM glutamate using a 100 ms pulse followed by a 50 ms interval and a second 20 ms pulse to evaluate recovery from desensitization (Fig 10A and 10B red traces). […] These effects are drug specific because wash out of VU0627849 restored the original current (Fig 10B, black trace). We also see a small effect on A2R cells that was not seen in the VSD assay (Fig 10A blue trace). VU0627849 acted as a PAM on A2R-stg cells, corroborating our HTS data from the VSD assay.

Consider three compounds from publication PMC5373622, “Screening for AMPA receptor auxiliary subunit specific modulators” (PLoS ONE, 2017).

In general, IC50 refers to the concentration that gives 50% inhibition. A low value points to higher potency. As a reminder, the EC50 is the concentration that produces a half-maximal response.

SMILES strings stand for the structures.

T6 sequence (P42262 25-883 isoform P42262-2 Q607R limits assumed): as above
T6 sequence (Q9Y698 whole entry partner): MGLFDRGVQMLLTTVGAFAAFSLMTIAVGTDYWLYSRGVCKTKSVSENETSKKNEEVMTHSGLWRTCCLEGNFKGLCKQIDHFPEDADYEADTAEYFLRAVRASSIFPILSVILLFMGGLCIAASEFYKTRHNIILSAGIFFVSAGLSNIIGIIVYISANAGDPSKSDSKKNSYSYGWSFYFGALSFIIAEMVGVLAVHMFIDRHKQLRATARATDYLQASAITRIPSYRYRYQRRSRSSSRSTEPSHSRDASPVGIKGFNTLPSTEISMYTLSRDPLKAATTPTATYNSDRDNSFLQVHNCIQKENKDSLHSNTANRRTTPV
Sequence of GluA2flip(R)-stargazin (A2R-stg TetON HEK293 cells) (P42262 25-883 isoform P42262-2 Q607R limits assumed): as the sequence (P42262 25-883 isoform P42262-2 Q607R limits assumed) above
Sequence of GluA2flip(R)-stargazin (A2R-stg TetON HEK293 cells) (Q9Y698 whole entry partner): as the sequence (Q9Y698 whole entry partner) above
T3 sequence (P42262 25-883 isoform P42262-2 limits assumed): as the sequence (P42262 25-883 isoform P42262-2 Q607R limits assumed) above, with R583Q counted along it
T2 sequence (P42262 25-883 isoform P42262-2 limits assumed): as the sequence (P42262 25-883 isoform P42262-2 Q607R limits assumed) above, with R583Q counted along it
T2 sequence (Q8TBE1 whole entry partner): as the sequence (Q8TBE1 whole entry partner) above
T1 sequence (P19491 22-883): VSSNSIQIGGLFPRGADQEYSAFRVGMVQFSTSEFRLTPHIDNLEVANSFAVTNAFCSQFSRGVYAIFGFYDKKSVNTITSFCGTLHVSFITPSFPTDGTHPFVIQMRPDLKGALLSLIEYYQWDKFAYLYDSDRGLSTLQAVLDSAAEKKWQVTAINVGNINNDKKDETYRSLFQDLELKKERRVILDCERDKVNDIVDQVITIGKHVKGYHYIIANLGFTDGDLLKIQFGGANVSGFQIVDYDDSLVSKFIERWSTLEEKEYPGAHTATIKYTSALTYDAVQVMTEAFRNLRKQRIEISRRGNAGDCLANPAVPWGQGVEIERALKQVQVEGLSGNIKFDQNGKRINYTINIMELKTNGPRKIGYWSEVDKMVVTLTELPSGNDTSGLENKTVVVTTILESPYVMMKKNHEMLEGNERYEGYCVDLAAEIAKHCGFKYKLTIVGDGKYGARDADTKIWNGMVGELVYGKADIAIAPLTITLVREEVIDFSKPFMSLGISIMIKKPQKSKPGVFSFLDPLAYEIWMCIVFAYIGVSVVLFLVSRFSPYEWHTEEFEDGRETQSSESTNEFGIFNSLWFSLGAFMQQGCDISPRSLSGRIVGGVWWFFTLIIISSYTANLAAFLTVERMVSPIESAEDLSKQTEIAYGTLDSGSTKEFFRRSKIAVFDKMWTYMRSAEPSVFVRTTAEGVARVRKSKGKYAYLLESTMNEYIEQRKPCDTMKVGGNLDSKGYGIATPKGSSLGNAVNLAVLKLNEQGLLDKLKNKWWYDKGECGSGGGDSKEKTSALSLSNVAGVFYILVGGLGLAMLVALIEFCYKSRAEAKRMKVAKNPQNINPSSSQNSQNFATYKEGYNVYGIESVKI
T1 sequence (Q71RJ2 whole entry partner): as the sequence (Q9Y698 whole entry partner) above, with I257V, E306D, N307S, S313A counted along it

With `CCCc1c(C(=O)NC2CCCCC2)nnn1-c1ccccc1` [VU0612951], in [1], the IC50 was found to be 1.5 µM; the “PAM/NAM activity in VSD assay, A2R-stg” value was “NAM”; the “concentration at which PAM/NAM activity is evident in raw VSD traces, A2R-stg” value is given as “submicromolar”. For the same compound, in assay [1] (VSD CRC 40 μM to 10 nM), the “decrease in %max GLUslope across the CRC, A2R-stg” value was ~ 40%. Further, in assay [2], half-maximal inhibition (IC50) required 0.87 µM; the “PAM/NAM activity in VSD assay, A2R-C3” value is “NAM”; the “concentration at which PAM/NAM activity is evident in raw VSD traces, A2R-C3” value is given as “higher than 1 μM”. For the same compound, the “decrease in %max GLUslope across the CRC, A2R-C3” value in [2] (VSD CRC 40 μM to 10 nM) is ~ 40%. Besides, the “PAM/NAM activity in calcium flux CRC assay, A2Q-stg” value in assay [3] is on record as “negative trend”. Further, the “PAM/NAM categorisation in glutamate potency fold-shift assay, A2Q-stg” value in [4] is “right-shifts”. In addition, the “PAM/NAM categorisation in glutamate potency fold-shift assay, A2Q-C3” value in assay [5] is on record as “right-shifts”.

In the case of `COc1ccccc1CC(=O)NC1(c2nc(-c3ccsc3)no2)CCCCC1` [VU0539491], the “PAM/NAM activity in calcium flux CRC assay, A2Q-C3” value in [6] is “slight decrease in signal”. The “PAM/NAM activity in calcium flux CRC assay, A2Q” value in [7] is given as “Slight NAM activity”. Moreover, in assay [1], a half-maximal effect (EC50) was put at 4.2 µM and the “PAM/NAM activity in VSD assay, A2R-stg” value was “PAM”. For the same compound, in assay [2], inhibition was half-maximal at 3.2 µM (IC50) and the “PAM/NAM activity in VSD assay, A2R-C3” value is “NAM”. In addition, in [3], the “PAM/NAM activity in calcium flux CRC assay, A2Q-stg” value is on record as “Slight NAM activity”. The “PAM/NAM activity in calcium flux CRC assay, A2Q-GSG” value in assay [8] was “PAM”. For the same compound, the “PAM/NAM categorisation in glutamate potency fold-shift assay, A2Q-stg” value in [4] was “NAM”. Also, the “PAM/NAM categorisation in glutamate potency fold-shift assay, A2Q-C3” value in assay [5] was “NAM”.

Take `O=C(Cc1cc(-c2ccc3c(c2)OCCO3)on1)NCc1ccccc1` [VU0627849]: in [6], the EC50 is 3.1 µM and the “PAM/NAM activity in calcium flux CRC assay, A2Q-C3” value was “PAM”. For the same compound, the “positive change in %max GLUslope, A2Q-C3” value in [6] (across calcium flux CRC) was over 80%. Besides, the “PAM/NAM activity in calcium flux CRC assay, A2Q” value in assay [7] is reported as “PAM”. In addition, the EC50 in assay [7] (CRC from GLUslope1, 1 mM glutamate, PAM, read-out: EC50 Ca2+ Sensing, A2Q) was 14.1 µM. In assay [7] (across calcium flux CRC), the “positive change in %max GLUslope, A2Q” value is recorded as over 80%. Besides, in [1], the midpoint of the response, the EC50, lay at 0.86 µM; the “PAM/NAM activity in VSD assay, A2R-stg” value was “PAM”; the “concentration at which PAM/NAM activity is evident in raw VSD traces, A2R-stg” value was at least 2.5 µM. For the same compound, the “effect on A2R cells in electrophysiology” value in assay [9] was “small effect”. In addition, the “Activity on A2R cells in counter-screens” value in assay [10] is “did not show any activity”. For the same compound, in [2], the EC50 came to 0.85 µM; the “PAM/NAM activity in VSD assay, A2R-C3” value was “PAM”; the “concentration at which PAM/NAM activity is evident in raw VSD traces, A2R-C3” value is at least 2.5 µM. Besides, in assay [3], the “PAM/NAM activity in calcium flux CRC assay, A2Q-stg” value is “PAM”. Also, the “increase in response of A2Q-stg cells” value in assay [3] (7.5 and 30 μM compound) was ~ 300 arbitrary fluorescence units (AFU). Moreover, in assay [8], the EC50 came out at 24.9 µM and the “PAM/NAM activity in calcium flux CRC assay, A2Q-GSG” value was “PAM”. Also, the “positive change in %max GLUslope, A2Q-GSG” value in [8] (across calcium flux CRC) is over 80%. Further, the “PAM/NAM activity in electrophysiology, A2R-stg” value in [11] is on record as “PAM”. For the same compound, the “change in peak amplitude” value in assay [11] (1 mM glutamate 100 ms pulse, preliminary) was “no change”. Besides, the “amplitude in the second pulse of glutamate” value in [11] (second 20 ms pulse after 50 ms interval, preliminary) is “increased amplitude”. Besides, in assay [11] (within 10 ms following initial activation and desensitization, preliminary), the resensitization entry is listed as “delayed increase in resensitization”.
